Source: the SangsterLogP compilation

SMILES | logP
Nc1nc(N)[nH]c(=O)n1 | -0.46
O=c1[nH]c(=O)[nH]c(=O)[nH]1 | -0.47
COc1nc(NC(C)C)nc(NC(C)C)n1 | 2.6
Nc1nc(N)nc(N)n1 | -0.4
CCN(CC)c1nc(N)nc(Cl)n1 | 2.12
Nc1nc(N)nc(NC2CC2)n1 | 0.05
CNc1nc(NC)nc(NC(C)C)n1 | 1.87
Cc1nnc(-c2ccccc2)c(=O)n1N | 0.98
CCNc1nc(NC(C)C)nc(=O)[nH]1 | 0.76
Nc1nc(N)nc(Cl)n1 | 0.11

The remaining lines, values ahead:

logP | SMILES
-0.08 | CC(C)Nc1nc(N)[nH]c(=O)n1
0.43 | CC(C)(C)Nc1nc(N)[nH]c(=O)n1
0.83 | CCNc1nc(N)nc(OC)n1
1.93 | COc1nc(N)nc(NC(C)(C)C)n1
1.78 | CCC(C)Nc1nc(N)nc(Cl)n1 (centres undefined)
1.5 | CCNc1nc(NC(C)(C)C)nc(=O)[nH]1
2.57 | CCNc1nc(N=[N+]=[N-])nc(NC(C)C)n1
0.35 | CCNc1nc(NCC)[nH]c(=O)n1
-0.3 | CCNc1nc(N)nc(=O)[nH]1
